The values that follow are results of earlier work, collected in patent publication US20220409569A1, “Cannabinoid Products with High Bioavailability” (The Chemist's Cabinet, LLC, priority 2019, published 2022).

For this data set the following is noted: oral administration.

Take `CCCCCc1cc(O)c2c(c1)OC(C)(C)[C@@H]1CCC(C)=C[C@@H]21` [THC, tetrahydrocannabinol]: the bioavailability is 4%-12%.

Turning to `C=C(C)[C@@H]1CCC(C)=C[C@H]1c1c(O)cc(CCCCC)cc1O` [CBD, cannabidiol], the bioavailability is approximately 6%.
